Records with an inconclusive call do not appear. The source made the active and inactive calls.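 How the source made its calls: active means EC50 no more than tenfold above the top concentration tested, with valid fit and all samples agreeing; inconclusive means flat fit at 30 to 70% inhibition, poor fit, or split samples; inactive means EC50 beyond tenfold the top concentration tested.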

The test system of the test is BJeLR fibroblast viability, Alamar Blue fluorescence, 48 h. Briefly: cytotoxicity toward RAS-transformed BJeLR fibroblasts, dose response, cell-based, alamar blue fluorescence, 48 h, cherrypicked samples (AID 2610).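 Further: BJ fibroblasts with hTERT plus SV40 large and small T and HRAS V12; EC50 for loss of viable cells so potency reflects cytotoxic compounds.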
Broadly, the EC50 is the midpoint of the concentration-response curve. With `CCC(C)C(=O)OCC1(c2ccc(C)cc2OC(=O)C(C)C)CO1` (stereo not drawn), the EC50 is > 13300 nM (inactive).
Consider `COc1ccccc1-n1cnc2cc(NCc3cccs3)ccc21`, for which the half-maximal effective concentration (EC50) is below 104 nM.
Turning to `CCN1/C(=C/C(C)=C/c2sc3ccccc3[n+]2CC)Sc2ccccc21`, the EC50 is 152 nM.
Turning to `O=c1c2ccccc2nc(/C=C/c2ccc([N+](=O)[O-])o2)n1-c1ccc(O)cc1`, the EC50 was 3660 nM.
The same measure for `COc1cc2c(c(OC)c1OC)-c1ccc(O)c(=O)cc1C(NC(C)=O)CC2` (stereo not drawn): below 104 nM; for `O=C1SC(Cc2ccccc2)C(=O)N1c1ccccc1` (stereo not drawn): 2350 nM; for `ClC1=C(Cl)C(Cl)=C(Cl)C1=C/C=C/c1ccccc1`: 1040 nM.
Regarding `COc1ccc(/C=N\NC(=O)c2cccc(F)c2)cc1COc1ccccc1`, the EC50 is below 104 nM.
To `C[C@@H]1C=CC(=O)O[C@@H]1c1ccc(Cl)cc1` belongs 4190 nM; to `COc1ccc(S(=O)(=O)N2c3cc(Cl)ccc3Oc3nc4ccccc4nc32)cc1`, 193 nM.
As to `CN1C/C(=C/c2ccncc2)C(=O)/C(=C/c2ccncc2)C1`, the EC50 was 555 nM.
Turning to `CC1=CC(=O)C=C(C)C1=NOS(=O)(=O)c1ccccc1`, the 50% effective concentration (EC50) was 3010 nM.
For `COc1ccc(NC(=O)C(=O)NCC2CCCN2S(=O)(=O)c2ccc(C)cc2)cc1` (stereo not drawn), the EC50 was below 104 nM.
With `Cc1ccc(C(C)C)c(OCc2ccc(C(=O)N/N=C/c3cccc(O)c3O)cc2)c1`, the EC50 is 496 nM.
For `O=C(Cc1ccc([N+](=O)[O-])cc1)N/N=C/c1ccc([N+](=O)[O-])o1`, the EC50 is 3540 nM.
To `O=C(CCl)N(CCCNC(=O)C(F)(F)F)c1ccc([N+](=O)[O-])cc1` belongs 424 nM.
Turning to `CC(C)c1cc(C(=O)N/N=C/C(Br)=C/c2ccccc2)n[nH]1`, the EC50 is 958 nM.
In the case of `O=C(/C=C/c1ccc([N+](=O)[O-])o1)NNC(=O)c1ccc(F)cc1`, the EC50 is 2660 nM.
For `Cc1cccc(NC2=NC(C)(C)N=C(N)N2)c1`, the EC50 is > 13300 nM (inactive).
With `O=C(COc1ccc([N+](=O)[O-])cc1)Nc1ccc(C(=O)NCc2cccnc2)cc1`, the EC50 is > 13300 nM (inactive).
As to `CC(C)Oc1ccccc1C1CC(=O)Nc2cc3c(cc21)OCCO3` (stereo not drawn), the EC50 was 307 nM.
To `COc1cc2c(c(OC)c1OC)-c1ccc(N(C)CC(OC)OC)c(=O)cc1[C@@H](NC(C)=O)CC2` belongs 180 nM.
As to `Cc1ccc(C)c(NS(=O)(=O)c2ccc(-c3cnc(C4CC4)o3)cc2)c1`, the EC50 was below 104 nM.
Consider `O=C1C=C(c2cccs2)C[C@H](c2ccccc2)[C@H]1n1nnc([N+](=O)[O-])n1`, for which the EC50 was below 104 nM.
Regarding `Cc1ccc2[nH]c3c(c2c1)CCCC3NC(=O)CCl` (stereo not drawn), the EC50 was 2270 nM.
In the case of `Cn1cccc1/C=C1\SC(=Nc2ccc(O)cc2)NC1=O`, the EC50 was below 104 nM.
`O=C(Nc1ccc([N+](=O)[O-])cc1)Nc1ccon1`: the EC50 is 380 nM.
Regarding `Cc1cc(N)c2cc(NC(=O)/C=C/c3ccccc3Cl)ccc2n1`, the EC50 was 1240 nM.
On to `CCN(CC)C(=O)c1ccc(NC(=O)Nc2ccccc2F)cc1`, for which the EC50 was > 13300 nM (inactive).
As to `O=[N+]([O-])c1cc(Br)c(Nc2ccccc2)c([N+](=O)[O-])c1`, the EC50 was 537 nM.
The same measure for `CCOC(=O)/C(=C\c1cccnc1)C(=O)c1cc(C(C)=O)c(Nc2ccccc2)s1`: 575 nM; for `CCN(CC)CCCNC(=O)c1cc(-c2ccccc2)c(N2CCCCC2)s1`: > 13300 nM (inactive).
Consider `S=c1nc[nH]c2nc[nH]c12`, for which the EC50 was > 13300 nM (inactive).
The same measure for `CCN(CC)c1ccc(/C=N/NC(=O)c2ccc3nc[nH]c3c2)c(O)c1`: 1530 nM; for `COc1ccc(C(C(=O)NC2CCCCC2)N(C(=O)CCl)c2ccc(C)cc2)cc1` (stereo not drawn): 454 nM; for `CCNC(=S)NNC(=O)c1cc(-c2ccc(OCC)cc2)nc2ccccc12`: > 13300 nM (inactive).
The same measure for `CCc1c(C)c(C#N)c2nc3ccccc3n2c1Cl`: 553 nM; for `FC(F)(F)c1nnc2c(Sc3ccccc3)nc3ccc(Cl)cc3n12`: 577 nM.
As to `CCCCCN=C(N)N/N=C/c1c[nH]c2ccc(OC)cc12`, the EC50 is 2980 nM.
To `Cc1ccc(-c2nnc(SCC(=O)Nc3ccccc3F)o2)cc1` belongs > 13300 nM (inactive); to `COc1ccc(N/N=C(/N=Nc2nc(C)cc(=O)[nH]2)c2ccccc2)cc1`, 446 nM.
As to `CCOc1ccc(OCc2cccc(C(=O)O)c2)cc1`, the EC50 is > 13300 nM (inactive).
As for `CC[C@@]1(O)C(=O)OCc2c1cc1n(c2=O)Cc2cc3c(N)cccc3nc2-1`, the concentration giving a half-maximal response (EC50) was below 30.7 nM.
On to `Cc1cc(C)c2nc(C)cc(N/N=C/c3ccc(O)cc3)c2c1`, for which the EC50 is 575 nM.
The same measure for `CC(=O)c1ccccc1OCCOCCOCCOc1ccccc1C(C)=O`: > 13300 nM (inactive).
On to `COc1ccc(N/C=C/C(=O)c2cc(OC)c(OC)c(OC)c2)cc1`, for which the EC50 was 206 nM.
Regarding `CCOc1ccccc1C(=O)N1CCN(c2cccc(Cl)c2)CC1`, the EC50 was below 104 nM.
As for `COc1cccc(N2CCN(C(=O)c3ccc(CS(=O)c4ccc(C)cc4)o3)CC2)c1` (stereo not drawn), the EC50 was 165 nM.
`CCOc1cc(/C=C2\COc3ccccc3C2=O)cc(Br)c1OCC(=O)N(C)C`: the EC50 is 3080 nM.
Take `Cc1nc(N)nc(N)c1/C=C/C(C)(C)c1ccc(Cl)cc1`: the EC50 was > 13300 nM (inactive).
In the case of `COCCCN=C1NN=C(c2cc(C)n(Cc3ccco3)c2C)CS1`, the EC50 is below 104 nM.
In the case of `COC(=O)C[C@]1(C(=O)OC)CN(C#N)N(c2ccc(Cl)cc2)C12c1ccccc1-c1ccccc12`, the 50% effective concentration (EC50) was 762 nM.
Take `COc1ccc(C[C@H]2NC[C@H](O)[C@H]2OC(C)=O)cc1`: the EC50 was below 64.7 nM.
As to `CC[C@@]1(O)C(=O)OCc2c1cc1n(c2=O)Cc2cc3c(NC(=O)CN)cccc3nc2-1`, the EC50 is 292 nM.
The same measure for `O=C(CCCCCCCCCCC(=O)NCc1cccnc1)NCc1cccnc1`: > 13300 nM (inactive); for `N#Cc1c(NC(=O)/C=C/c2ccco2)sc2c1CCCC2`: below 104 nM; for `CCCOc1ccc(C(=O)C(CCC(CNCC)C(=O)c2ccc(OCCC)cc2)CNCC)cc1` (stereo not drawn): 638 nM.
On to `Cc1c(C(=O)OCC(=O)N2CC(=O)Nc3ccccc32)oc2ccc(Br)cc12`, for which the EC50 is > 13300 nM (inactive).
Take `N#CC(C#N)=NNc1ccc(-n2ccc(C(F)(F)F)n2)cc1`: the EC50 is 2650 nM.
For `CC(=O)c1ccc(NC(=O)N2CCc3ccccc3C2)cc1`, the EC50 is > 13300 nM (inactive).
On to `Cc1nn(-c2ccccc2)c(Cl)c1CN(C(=O)CCl)c1ccc(Cl)cc1`, for which the EC50 is 521 nM.
To `C=C1C(=O)O[C@@H]2C[C@@H](C)[C@@H]3C=CC(=O)[C@@]3(C)[C@@H](OC(=O)CC(=O)O[C@H]3[C@@H]4C(=C)C(=O)O[C@@H]4C[C@@H](C)[C@@H]4C=CC(=O)[C@]43C)[C@H]12` belongs below 41.7 nM.
The same measure for `COc1ccc(C)cc1Nc1c2c(nc3ccccc13)CCC2`: 292 nM; for `COc1cc(/C=C/[N+](=O)[O-])ccc1O`: 6500 nM.
As for `CC1=CC(=O)C=C(C)C1=NOc1ccccc1[N+](=O)[O-]`, the EC50 was 670 nM.
To `N=c1c2c(-c3ccccc3)c(-c3ccccc3)n(Cc3ccco3)c2ncn1CCCn1ccnc1` belongs 1270 nM; to `Cc1ccc(C2=NN(C(=O)CCl)C(c3ccco3)C2)o1` (stereo not drawn), 1600 nM.
For `CNC(=S)N/N=C/c1ccc(-c2ccc(C(=O)O)cc2)o1`, the EC50 was > 13300 nM (inactive).
The same measure for `c1ccc(-c2noc(-c3ccc4c(c3)OCO4)n2)nc1`: > 13300 nM (inactive); for `O=C(N/N=C/c1cc2c3c(c1O)CCCN3CCC2)c1ccccc1O`: 755 nM; for `CC(Oc1ccc(Cl)cc1Cl)c1nc(-c2ccc(NC(=O)c3cccnc3)cc2)no1` (stereo not drawn): 1580 nM.
As to `C[C@@H]1O[C@@H](O[C@H]2C[C@@H](O)[C@]3(CO)[C@H]4[C@H](O)C[C@]5(C)[C@@H](C6COC(=O)C6)CC[C@]5(O)[C@@H]4CC[C@]3(O)C2)[C@H](O)[C@H](O)[C@H]1O` (stereo partly drawn), the EC50 is 802 nM.
To `O=Cc1cc2ccccc2nc1SCc1ccc(Cl)c(Cl)c1` belongs below 104 nM; to `CCCc1sc(N/N=C/c2ccccn2)nc1-c1ccc(F)cc1`, 1360 nM; to `COc1cccc(N2C(N)=NC(N)=NC2(C)C)c1`, > 13300 nM (inactive).
On to `Cc1ccc(N2C(=O)c3cccc4c([N+](=O)[O-])ccc(c34)C2=O)c2cccnc12`, for which the EC50 was 523 nM.
`C[C@@H]1C[C@H]2OC(=O)C3(CO3)[C@H]2[C@H](O)[C@]2(C)C(=O)C3OC3[C@@H]12` (stereo partly drawn): the EC50 is 2830 nM.
In the case of `O=S1(=O)C=C(Sc2nc3ccccc3s2)c2ccccc21`, the EC50 is 316 nM.
Consider `CCN1C/C(=C/c2ccc(OC)c(O)c2)C(=O)/C(=C/c2ccc(OC)c(O)c2)C1`, for which the half-maximal effective concentration (EC50) was 472 nM.
On to `COc1ccc(-c2cc3nc(C)n(N)c(=O)c3s2)cc1`, for which the EC50 was > 13300 nM (inactive).
Turning to `COc1cc([C@@H]2c3cc4c(cc3[C@@H](NC3CCN(Cc5ccccc5)CC3)[C@H]3COC(=O)[C@H]23)OCO4)cc(OC)c1O`, the EC50 is 133 nM.
The same measure for `CCCCC(=O)NC(c1ccc(C(C)C)cc1)c1ccc2cccnc2c1O` (stereo not drawn): 6420 nM.
`CCCCCN=Cc1c(C)[nH]n(-c2nc3ccccc3s2)c1=O`: the EC50 was > 13300 nM (inactive).
On to `Nc1ccc2c(c1)C(=O)C(=O)c1ccccc1-2`, for which the EC50 is 1720 nM.
`CCCN1C=CC(=C2C(=O)c3ccccc3C2=O)C=C1`: the EC50 is > 13300 nM (inactive).
As to `COc1ccc(N=C2S/C(=C\c3ccc(Cl)c([N+](=O)[O-])c3)C(=O)N2CCN(C)C)cc1`, the EC50 was 1370 nM.
Turning to `COc1cccc(C(=O)Nc2ccc(N3CCCC3)cc2)c1`, the EC50 is 1970 nM.
As to `O=C1/C(=C/c2ccncc2)CCC/C1=C\c1ccncc1`, the EC50 is 539 nM.
As for `COC(=O)c1[nH]c2c(c1C)C(=O)CC(c1cccs1)C2` (stereo not drawn), the EC50 was 152 nM.
The same measure for `COc1ccccc1C1C2=C(COC2=O)Nc2cc3c(cc21)OCO3` (stereo not drawn): below 104 nM; for `Cc1cccc(NS(=O)(=O)c2ccc(-c3cnc(C4CC4)o3)cc2)c1C`: below 104 nM; for `CCCCCCCCCCn1c2c(c(=N)c3c1CCC3)CCC2`: 820 nM.
Take `COCc1c(C(C)C)nc(C(C)C)c(/C=C/[C@@H](O)C[C@@H](O)CC(=O)O)c1-c1ccc(F)cc1`: the EC50 was below 104 nM.
